Measurements from patent US20050227999A1, “Diarylamine derivatives as calcium channel blockers” (NeuroMed Technologies Inc., priority 2004, published 2005).
Read-outs that look alike come from different tables or passages of the source.

Columns and labels:
[1] = target: T1, rat brain N-type calcium channel subunits (α1B+α2δ+β1b cDNA subunits) (Rattus norvegicus, UniProt Q02294); assay: N-type calcium channel block, whole cell patch clamp in transfected HEK 293 cells; assay type: cell-based; conditions: holding potential −80 mV to +10 mV
T1 construct: expressed in transfected cells; host or cells: HEK 293
Protocol: N-type calcium channel blocking activity was assayed in human embryonic kidney cells, HEK 293, stably transfected with the rat brain N-type calcium channel subunits (α1B+α2δ+β1b cDNA subunits). Alternatively, N-type calcium channels (α1B+α2δ+β1b cDNA subunits), L-type channels (α1C+δ+β1b cDNA subunits) and P/Q-type channels (α1A+α2δ+β1b cDNA subunits) were transiently expressed in HEK 293 cells. Briefly, cells were cultured in Dulbecco's modified eagle medium (DMEM) supplemented with 10% fetal bovine serum, 200 U/ml penicillin and 0.2 mg/ml streptomycin at 37° C. with 5% CO2. At 85% confluency cells were split with 0.25% trypsin/l mM EDTA and plated at 10% confluency on glass coverslips. At 12 hours the medium was replaced and the cells transiently transfected using a standard calcium phosphate protocol and the appropriate calcium channel cDNA's. Fresh DMEM was supplied and the cells transferred to 28° C./5% CO2. Cells were incubated for 1 to 2 days before cell recording.
Whole cell patch clamp experiments were performed using an Axopatch 200B amplifier (Axon Instruments, Burlingame, Calif.) linked to a personal computer equipped with PCLAMP software. The external and internal recording solutions contained, respectively, 5 mM BaCl2, 10 mM MgCl2, 10 mM HEPES, 40 mM TEACl, 10 mM glucose, 87.5 mM CsCl (pH 7.2) and 108 mM CsMS, 4 mM MgCl2, 9 mM EGTA, 9 mM HEPES (pH 7.2). Currents were typically elicited from a holding potential of −80 mV to +10 mV using Clampex software (Axon Instruments). Typically, currents were first elicited with low frequency stimulation (0.067 Hz) and allowed to stabilize prior to application of the compounds. The compounds were then applied during the low frequency pulse trains for two to three minutes to assess tonic block, and subsequently the pulse frequency was increased to 0.2 Hz to assess frequency dependent block. Data were analyzed using Clampfit (Axon Instruments) and SigmaPlot 4.0 (Jandel Scientific). […]

[2] = target: T2, human α1G T-type channels (Homo sapiens, UniProt O43497); assay: T-type calcium channel block, patch clamp in HEK cell lines; assay type: cell-based
T2 construct: expressed in transfected cells
Protocol: Standard patch-clamp techniques were employed to identify blockers of T-type currents. Briefly, previously described HEK cell lines stably expressing human α1G T-type channels were used for all the recordings (passage #: 4-20, 37° C., 5% CO2). To obtain T-type currents, plastic dishes containing semi-confluent cells were positioned on the stage of a ZEISS AXIOVERT S100 microscope after replacing the culture medium with external solution (see below). Whole-cell patches were obtained using pipettes (borosilicate glass with filament, O.D.: 1.5 mm, I.D.: 0.86 mm, 10 cm length), fabricated on a SUTTER P-97 puller with resistance values of ˜5 MΩ (see below for internal solution).
In the non-inactivating protocol, the holding potential is set at −110 mV and with a pre-pulse at −100 mV for 1 second prior to the test pulse at 40 mV for 50 ms. […]
Test compounds were dissolved in external solution, 0.1-0.01% DMSO. After ˜10 min rest, they were applied by gravity close to the cell using a WPI microfil tubing. The “non-inactivated” pre-pulse was used to examine the resting block of a compound. The “inactivated” protocol was employed to study voltage-dependent block. However, the initial data shown below were mainly obtained using the non-inactivated protocol only. IC50 values are shown for various compounds of the invention in Table 4.

[3] = low frequency stimulation 0.067 Hz (tonic block), read-out: IC50 @ 0.067 Hz
[4] = pulse frequency 0.2 Hz (frequency dependent block), read-out: IC50 @ 0.2 Hz
[5] = −80 mV (inactivation protocol, voltage-dependent block), read-out: IC50 - 80 mV
[6] = −100 mV pre-pulse (non-inactivating protocol, resting block), read-out: IC50 - 100 mV
[7] = −100 mV pre-pulse (non-inactivating protocol, resting block)

T1 sequence (Q02294 whole entry): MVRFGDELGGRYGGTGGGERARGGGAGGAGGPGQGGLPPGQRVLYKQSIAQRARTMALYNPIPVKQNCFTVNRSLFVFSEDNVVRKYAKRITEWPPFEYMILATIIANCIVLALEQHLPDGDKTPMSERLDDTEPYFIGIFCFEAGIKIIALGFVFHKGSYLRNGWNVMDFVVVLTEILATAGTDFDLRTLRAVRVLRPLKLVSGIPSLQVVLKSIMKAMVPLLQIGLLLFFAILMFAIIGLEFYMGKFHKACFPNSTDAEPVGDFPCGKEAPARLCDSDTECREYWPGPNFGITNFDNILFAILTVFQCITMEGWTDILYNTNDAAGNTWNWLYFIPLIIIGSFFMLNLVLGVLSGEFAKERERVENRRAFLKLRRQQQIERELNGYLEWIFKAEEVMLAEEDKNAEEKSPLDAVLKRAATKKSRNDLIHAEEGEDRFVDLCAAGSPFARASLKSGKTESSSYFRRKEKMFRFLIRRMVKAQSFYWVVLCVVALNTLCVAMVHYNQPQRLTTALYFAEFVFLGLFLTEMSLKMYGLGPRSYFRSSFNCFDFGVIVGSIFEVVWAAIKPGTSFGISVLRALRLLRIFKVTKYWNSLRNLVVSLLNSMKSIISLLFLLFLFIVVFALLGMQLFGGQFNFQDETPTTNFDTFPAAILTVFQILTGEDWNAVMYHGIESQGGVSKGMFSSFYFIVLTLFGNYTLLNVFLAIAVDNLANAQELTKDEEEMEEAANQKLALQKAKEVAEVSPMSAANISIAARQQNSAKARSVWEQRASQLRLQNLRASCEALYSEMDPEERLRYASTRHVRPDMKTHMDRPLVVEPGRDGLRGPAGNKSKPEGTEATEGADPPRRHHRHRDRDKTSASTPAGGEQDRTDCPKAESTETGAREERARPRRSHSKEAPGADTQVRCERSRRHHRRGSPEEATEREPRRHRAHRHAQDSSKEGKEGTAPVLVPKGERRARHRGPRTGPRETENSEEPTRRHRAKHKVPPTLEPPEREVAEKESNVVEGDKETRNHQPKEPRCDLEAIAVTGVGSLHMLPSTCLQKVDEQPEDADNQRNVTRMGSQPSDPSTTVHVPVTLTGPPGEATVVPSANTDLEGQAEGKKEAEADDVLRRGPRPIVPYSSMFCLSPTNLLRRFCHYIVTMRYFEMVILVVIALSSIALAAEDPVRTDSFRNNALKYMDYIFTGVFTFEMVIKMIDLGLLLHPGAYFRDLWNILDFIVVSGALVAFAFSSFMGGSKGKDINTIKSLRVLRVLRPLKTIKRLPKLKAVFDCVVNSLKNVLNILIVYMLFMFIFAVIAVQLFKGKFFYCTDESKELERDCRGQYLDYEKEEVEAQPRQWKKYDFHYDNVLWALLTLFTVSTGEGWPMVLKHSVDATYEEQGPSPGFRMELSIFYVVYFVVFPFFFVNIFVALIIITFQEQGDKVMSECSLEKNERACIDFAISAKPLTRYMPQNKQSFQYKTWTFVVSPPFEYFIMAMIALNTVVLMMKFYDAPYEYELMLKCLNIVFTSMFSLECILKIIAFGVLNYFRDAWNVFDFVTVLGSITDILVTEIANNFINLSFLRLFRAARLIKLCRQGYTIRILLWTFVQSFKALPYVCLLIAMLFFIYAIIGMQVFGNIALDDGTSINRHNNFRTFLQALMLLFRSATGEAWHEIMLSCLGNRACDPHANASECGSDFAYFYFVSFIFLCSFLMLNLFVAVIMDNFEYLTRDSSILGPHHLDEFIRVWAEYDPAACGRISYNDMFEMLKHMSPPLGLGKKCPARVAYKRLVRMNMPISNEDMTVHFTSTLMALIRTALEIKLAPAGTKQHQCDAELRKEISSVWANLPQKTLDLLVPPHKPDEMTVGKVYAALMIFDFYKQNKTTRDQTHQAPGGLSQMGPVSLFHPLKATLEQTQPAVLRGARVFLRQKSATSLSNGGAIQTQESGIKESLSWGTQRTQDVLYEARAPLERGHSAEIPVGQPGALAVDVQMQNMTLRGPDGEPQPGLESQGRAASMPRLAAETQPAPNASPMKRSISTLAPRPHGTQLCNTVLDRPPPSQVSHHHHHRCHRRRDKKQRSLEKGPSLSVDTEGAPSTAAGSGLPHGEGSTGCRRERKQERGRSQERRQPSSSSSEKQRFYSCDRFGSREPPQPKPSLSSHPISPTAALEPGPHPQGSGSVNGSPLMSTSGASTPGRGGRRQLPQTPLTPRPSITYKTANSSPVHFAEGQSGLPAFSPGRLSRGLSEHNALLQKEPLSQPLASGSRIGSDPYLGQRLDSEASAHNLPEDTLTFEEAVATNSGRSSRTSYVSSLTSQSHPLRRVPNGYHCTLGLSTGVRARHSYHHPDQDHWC
T1 sequence (P54290 25-944 partner limits assumed): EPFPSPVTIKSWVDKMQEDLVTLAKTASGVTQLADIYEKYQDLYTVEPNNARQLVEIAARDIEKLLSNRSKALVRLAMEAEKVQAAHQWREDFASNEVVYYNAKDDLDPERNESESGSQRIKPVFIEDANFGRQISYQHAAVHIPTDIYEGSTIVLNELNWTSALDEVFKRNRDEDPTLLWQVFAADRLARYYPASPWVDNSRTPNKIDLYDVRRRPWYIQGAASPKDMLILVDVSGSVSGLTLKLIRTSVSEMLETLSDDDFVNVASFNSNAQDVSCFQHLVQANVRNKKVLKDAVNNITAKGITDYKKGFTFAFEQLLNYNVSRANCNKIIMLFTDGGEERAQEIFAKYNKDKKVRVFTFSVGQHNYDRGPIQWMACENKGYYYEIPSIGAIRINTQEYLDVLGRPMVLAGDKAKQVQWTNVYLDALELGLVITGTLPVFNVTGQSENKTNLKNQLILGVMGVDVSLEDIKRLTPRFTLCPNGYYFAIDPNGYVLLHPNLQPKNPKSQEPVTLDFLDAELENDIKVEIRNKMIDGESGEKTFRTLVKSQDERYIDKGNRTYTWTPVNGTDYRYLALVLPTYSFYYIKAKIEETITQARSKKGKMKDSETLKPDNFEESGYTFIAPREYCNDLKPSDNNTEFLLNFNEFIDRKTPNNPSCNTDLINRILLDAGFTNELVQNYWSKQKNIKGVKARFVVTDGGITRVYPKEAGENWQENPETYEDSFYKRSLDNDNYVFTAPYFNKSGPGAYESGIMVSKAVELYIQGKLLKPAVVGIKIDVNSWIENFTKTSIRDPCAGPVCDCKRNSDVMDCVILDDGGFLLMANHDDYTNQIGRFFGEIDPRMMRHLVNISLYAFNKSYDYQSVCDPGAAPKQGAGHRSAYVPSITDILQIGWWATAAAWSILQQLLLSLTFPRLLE
T1 sequence (P54290 945-1091 partner limits assumed): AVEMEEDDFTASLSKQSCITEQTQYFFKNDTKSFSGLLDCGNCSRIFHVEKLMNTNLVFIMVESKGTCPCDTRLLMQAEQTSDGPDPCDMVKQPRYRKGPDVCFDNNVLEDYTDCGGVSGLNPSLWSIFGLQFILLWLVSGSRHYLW
T1 sequence (P54283 whole entry partner): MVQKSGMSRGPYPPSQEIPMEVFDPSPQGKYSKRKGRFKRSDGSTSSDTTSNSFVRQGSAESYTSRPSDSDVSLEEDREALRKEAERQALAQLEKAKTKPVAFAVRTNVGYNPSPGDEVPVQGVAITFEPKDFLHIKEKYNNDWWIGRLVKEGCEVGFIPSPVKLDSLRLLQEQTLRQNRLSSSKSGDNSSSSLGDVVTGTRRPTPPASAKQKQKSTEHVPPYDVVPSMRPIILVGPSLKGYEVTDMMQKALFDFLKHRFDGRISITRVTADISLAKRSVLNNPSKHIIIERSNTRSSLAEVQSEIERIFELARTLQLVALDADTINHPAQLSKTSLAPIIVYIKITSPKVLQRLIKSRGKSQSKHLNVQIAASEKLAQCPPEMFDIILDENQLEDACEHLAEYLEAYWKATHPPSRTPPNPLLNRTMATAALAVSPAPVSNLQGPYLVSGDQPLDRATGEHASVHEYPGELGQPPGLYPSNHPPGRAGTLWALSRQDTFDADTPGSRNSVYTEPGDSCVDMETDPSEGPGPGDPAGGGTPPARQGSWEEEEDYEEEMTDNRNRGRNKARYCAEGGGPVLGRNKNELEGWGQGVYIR

Compound	IC50 [1, 3] [nM]	IC50 [1, 4] [nM]	IC50 [2, 5] [nM]	IC50 [2, 6] [nM]	IC50 - 100 mV [2, 7]
O=C(CN(c1ccccc1)c1ccccc1)N1CCN(C(c2ccccc2)c2ccccc2)CC1 [Compound 1, 1-(4-Benzhydryl-piperazin-1-yl)-2-diphenylamino-ethanone]	6630	6610	510	1350	–
O=C(CN(c1ccccc1)c1ccccc1)N1CCN(C(c2ccccc2)c2ccc(Cl)cc2Cl)CC1 (stereo not shown) [Compound 3, 1-{4-[(2,4-Dichloro-phenyl)-phenyl-methyl]-piperazin-1-yl}-2-diphenylamino-ethanone]	550	460	6000	–	no effect
O=C(CN(c1ccccc1)c1ccccc1)N1CCN(C(c2ccccc2)c2ccc(Cl)cc2)CC1 (stereo not shown) [Compound 4, 1-{4-[(4-Chloro-phenyl)-phenyl-methyl]-piperazin-1-yl}-2-diphenylamino-ethanone]	550	500	748	3800	–
O=C(CN(c1ccccc1)c1ccccc1)N1CCN(C(c2ccccc2)c2cccc(Cl)c2)CC1 (stereo not shown) [Compound 5, 1-{4-[(3-Chloro-phenyl)-phenyl-methyl]-piperazin-1-yl}-2-diphenylamino-ethanone]	310	280	800	–	no effect
CN1CCCC(CN2CCN(C(=O)CN(c3ccccc3)c3ccccc3)CC2)C1 (stereo not shown) [Compound 10, 2-Diphenylamino-1-[4-(1-methyl-piperidin-3-ylmethyl)-piperazin-1-yl]-ethanone]	1100	980	2000	10000	–
Cc1ccc(C(c2ccccc2)N2CCN(CC(=O)N(c3ccccc3)c3ccccc3)CC2)c(C)c1 (stereo not shown) [Compound 18, 2-{4-[(2,4-Dimethyl-phenyl)-phenyl-methyl]-piperazin-1-yl}-N,N-diphenyl-acetamide]	1760	1250	84	229	–
O=C(CN1CCN(C(c2ccccc2)c2cccc(Cl)c2Cl)CC1)N(c1ccccc1)c1ccccc1 (stereo not shown) [Compound 22, 2-{4-[(2,3-Dichloro-phenyl)-phenyl-methyl]-piperazin-1-yl}-N,N-diphenyl-acetamide]	300	240	16	81	–

Further lines, results first:

IC50 [1, 3] [nM]	IC50 [1, 4] [nM]	IC50 [2, 5] [nM]	IC50 [2, 6] [nM]	IC50 - 100 mV [2, 7]	Compound
290	260	444	2000	–	Cc1ccc(C(c2ccccc2)N2CCN(C(=O)CN(c3ccccc3)c3ccccc3)CC2)c(C)c1 (stereo not shown) [Compound 2, 1-{4-[(2,4-Dimethyl-phenyl)-phenyl-methyl]-piperazin-1-yl}-2-diphenylamino-ethanone]
330	320	1200	–	no effect	O=C(CN(c1ccccc1)c1ccccc1)N1CCN(C(c2ccccc2)c2ccccc2Cl)CC1 (stereo not shown) [Compound 6, 1-{4-[(2-Chloro-phenyl)-phenyl-methyl]-piperazin-1-yl}-2-diphenylamino-ethanone]
290	260	1300	–	no effect	O=C(CN1CCN(C(c2ccccc2)c2ccccc2)CC1)N(c1ccccc1)c1ccccc1 [Compound 16, 2-(4-Benzhydryl-piperazin-1-yl)-N,N-diphenyl-acetamide]
830	510	29	118	–	O=C(CN1CCN(C(c2ccccc2)c2ccc(Cl)cc2Cl)CC1)N(c1ccccc1)c1ccccc1 (stereo not shown) [Compound 17, 2-{4-[(2,4-Dichloro-phenyl)-phenyl-methyl]-piperazin-1-yl}-N,N-diphenyl-acetamide]
190	110	22	72	–	O=C(CN1CCN(C(c2ccccc2)c2ccc(Cl)cc2)CC1)N(c1ccccc1)c1ccccc1 (stereo not shown) [Compound 19, 2-{4-[(4-Chloro-phenyl)-phenyl-methyl]-piperazin-1-yl}-N,N-diphenyl-acetamide]
340	320	33	114	–	O=C(CN1CCN(C(c2ccccc2)c2cccc(Cl)c2)CC1)N(c1ccccc1)c1ccccc1 (stereo not shown) [Compound 20, 2-{4-[(3-Chloro-phenyl)-phenyl-methyl]-piperazin-1-yl}-N,N-diphenyl-acetamide]
124	52	34	134	–	O=C(CN1CCN(C(c2ccccc2)c2ccccc2Cl)CC1)N(c1ccccc1)c1ccccc1 (stereo not shown) [Compound 21, 2-{4-[(2-Chloro-phenyl)-phenyl-methyl]-piperazin-1-yl}-N,N-diphenyl-acetamide]
460	460	3700	5700	–	CN1CCC(CN2CCN(CC(=O)N(c3ccccc3)c3ccccc3)CC2)CC1 [Compound 25, 2-[4-(1-Methyl-piperidin-4-ylmethyl)-piperazin-1-yl]-N,N-diphenyl-acetamide]
350	340	1000	–	no effect	CN(C)CCCN1CCN(CC(=O)N(c2ccccc2)c2ccccc2)CC1 [Compound 26, 2-[4-(3-Dimethylamino-propyl)-piperazin-1-yl]-N,N-diphenyl-acetamide]
